Publication PMC12549899 (Nature Communications, 2025)

Molecular target: T1, mouse OTOP1 (mOTOP1) (Mus musculus, UniProt Q80VM9)
T1 construct: expressed in transfected cells; host or cells: HEK-293 (CRL-1573, ATCC)
T1 sequence (Q80VM9 1-600): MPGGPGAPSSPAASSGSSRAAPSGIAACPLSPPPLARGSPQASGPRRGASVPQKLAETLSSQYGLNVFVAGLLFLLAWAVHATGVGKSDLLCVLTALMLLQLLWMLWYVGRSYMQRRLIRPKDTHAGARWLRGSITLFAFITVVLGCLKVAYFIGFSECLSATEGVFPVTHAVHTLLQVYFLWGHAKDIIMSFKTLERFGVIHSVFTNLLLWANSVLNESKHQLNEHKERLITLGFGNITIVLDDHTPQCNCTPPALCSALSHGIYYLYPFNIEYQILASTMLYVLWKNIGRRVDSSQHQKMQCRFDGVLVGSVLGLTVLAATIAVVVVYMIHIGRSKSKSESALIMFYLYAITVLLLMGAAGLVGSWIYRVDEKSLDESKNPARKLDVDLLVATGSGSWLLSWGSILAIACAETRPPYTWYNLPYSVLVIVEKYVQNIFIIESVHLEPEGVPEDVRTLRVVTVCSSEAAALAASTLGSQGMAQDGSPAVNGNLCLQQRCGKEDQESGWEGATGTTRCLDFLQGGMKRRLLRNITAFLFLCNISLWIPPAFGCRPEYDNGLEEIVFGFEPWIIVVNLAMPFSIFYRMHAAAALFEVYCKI
Assay: Whole-cell patch-clamp, inhibition of currents, mOTOP1 in HEK-293 cells
Format: cell-based
Conditions: HEK293, 100 µM (saturating concentration of C2.2)
Description: The second series of compounds was again tested by whole-cell patch-clamp recording of DrOTOP1 expressed in HEK-293 cells. Of the 54 compounds tested, we identified 16 that inhibited DrOTOP1 acid-induced currents by over 25% (Fig. 2D and Supplementary Fig. 3E). […] The Hill coefficient of 1.52 indicated positive cooperativity and multiple binding sites, similar to C11. We next tested each of these compounds against mouse OTOP1 (mOTOP1) and human (Homo sapiens) OTOP1 (hOTOP1), which are among the closest related proteins in the mammalian proteome. […] For both compounds, we also determined whether there was any pH-dependence to their inhibitory effect by measuring dose-response curves over a range from pH 6.0, where sizable currents first appear, to pH 5.0. […]
Whole-cell patch-clamp recording was performed as previously described[6],[22],[25]. Recordings were made with an Axopatch 200B amplifier, digitized with a Digidata 1322a 16-bit data acquisition system, acquired with pClamp 8.2 and analyzed with Clampfit 10 (Molecular Devices). […]
All data are presented as mean ± SEM unless otherwise noted, and each data point represents an independent replicant. Inhibition of compounds was quantified as ((I2peak-I1)/(I2peak))*100, where I1 is the current immediately before wash-off and I2peak is the maximum recovered current (Supplementary Fig. 2). […]

SMILES: C=C(C)COc1ccccc1NC(=O)c1nc[nH]c1C [C2.2]
- inhibition at 100 µM: 1.92%
